1 molecule from patent US10766873B2, “Zuclopenthixol hydrochloride derivatives and Ebselen derivatives as ErbB2 inhibitors” (Centre National de la Recherche Scientifique (CNRS), priority 2016, dated 2020) can be followed below.

The target in series [1] is ErbB2 (Homo sapiens, UniProt P04626). Briefly: ErbB2 phosphorylation in SKBR3 cells, dot blot (4G10). The arrangement: endogenous in cells; host or cells: SKBR3. As to conditions: SKBR3, 24 h. Format: cell-based. As for the experimental part: The ability of ZU and EB1 and their derivatives to inhibit ErbB2 activity in cellulo on a commonly used ErbB2-overexpressing breast cancer cell line SKBR3 was analyzed. SKBR3 were treated 24 h with increasing concentrations of the compounds (0.625-80 μM) and ErbB2 phosphorylation was addressed by dot blot analysis using an anti-phosphotyrosine antibody (clone 4G10). Quantifications show the result of two independent experiments.

Series [2] relates to EGFR/ErBB2 or ErbB3/ErbB2 heterodimers-dependent signalling pathways. Briefly: Ligand-dependent ErbB2 activation (EGF or HRG) in HBMECs, western blot. Conditions: pre-treatment 1 h or 24 h. The format is cell-based. As for the experimental part: In physiological conditions, ErbB2 activation occurs in heterodimer with the other ErbB family members, such as the EGFR in response to EGF stimulation or ErbB3 in response to heregulin (HRG) stimulation. We therefore addressed whether ZU, EB1 and their derivatives also affected the ligand-dependent physiological ErbB2 activation.
16 h-starved HBMECs cells were pre-treated or not for 1 h or 24 h with ZU, […] and their derivatives or AG1478 before EGF (50 ng/mL) or HRG1β (100 ng/mL) stimulation for 5 minutes. The activation of EGFR/ErBB2 or ErbB3/ErbB2 heterodimers-dependent signalling pathways was then analysed by western blot experiments using pAkt, Akt, pERK, ERK or 4G10 antibodies.

Series [3] concerns V777L ErbB2-transfected cells. Briefly: MTT cell proliferation, V777L ErbB2-transfected HBMEC. Conditions: day 3. Format: cell-based. The method, then:
(§1) The WT, V777L or V842I ErbB2-transfected cells were treated with 5 or 10 μM of ZU and cell proliferation was determined each day during 3 days using an MTT assay. Non transfected cells were included as a negative control.
(§2) The WT, V777L or V842I ErbB2-transfected cells were treated with 5 or 10 μM of EB1 and cell proliferation was determined each day during 3 days using an MTT assay. Non transfected cells were included as a negative control.

Series [4] relates to V842I ErbB2-transfected cells. Briefly: MTT cell proliferation, V842I ErbB2-transfected HBMEC. The format is cell-based. As to conditions: day 3. The method, then: as §1, §2
Series [5] deals with WT ErbB2-transfected cells. Kind of series: MTT cell proliferation, WT ErbB2-transfected HBMEC. The format is cell-based. Conditions: day 3. As for the experimental part: as §1, §2
In series [6] the test system is MDA-MB-231. Kind of series: MTT cell proliferation, MDA-MB-231. Format: cell-based. As to conditions: 10 μM. The method, then: (§3) We then analyzed the ability of ZU and EB1 and their derivatives to decrease the ErbB2-dependent cell proliferation.
(§4) SKBR3, BT474, MCF-7, MDA-MB-231 and HBMEC cells were treated with the compounds as indicated, and cell proliferation was determined each day during 3 days using an MTT assay. Non treated cells were included as a negative control.
The ErbB2-overexpressing gastric cancer cell line N87 and MDAMB-231, a non ErbB2-overexpressing breast cancer cell line were treated with 3, 5 or 7 μM of ZU and cell proliferation was determined each day during 3 days using an MTT assay. Non treated cells were included as a negative control.
The ErbB2-overexpressing ovarian cancer cell line SKOV3 and MDAMB-231, a non ErbB2-overexpressing breast cancer cell line were treated with 3, 5 or 7 μM of ZU and cell proliferation was determined each day during 3 days using an MTT assay. Non treated cells were included as a negative control.

Series [7] has as its system MCF7. Briefly: MTT cell proliferation, MCF7. The format is cell-based. As to conditions: 10 μM. As for the experimental part: as §3, §4
Series [8] concerns human breast cancer BT474 cells. Kind of series: BT474 orthotopic xenograft in mammary fat pad of mice. The format is in vivo, NOD.Cg-Prkdc scid/J mice. As to conditions: for tumor growth in vivo (in words): then once per day 3 days. The method, then:
5.10^6 BT474 cells were implanted orthotopically in the mammary fat pad of NOD.Cg-Prkdc scid/J mice, in the presence of estradiol supplement. After 4 weeks, mice were injected with ZU (N=10, 5 mg/kg per day for 5 days a week, followed by 3 mg/kg for 5 days a week during three weeks for N=6) or vehicle (N=10, 10% DMSO in PBS). Mice weight and tumor volume were measured 3 and 2 times a week respectively.
5.10^6 BT474 cells were implanted orthotopically in the mammary fat pad of NOD.Cg-Prkdc scid/J mice, in the presence of estradiol supplement. Nineteen days after implantation, treatment began and mice were injected i.p. with […] ZU (5 mg/kg per day for 3 days a week, during three weeks for N=9), 4 mg/kg ZU (5 days a week during three weeks, N=8) or vehicle (N=9, 10% DMSO in PBS). Mice weight and tumor volume were measured 3 and 2 times a week respectively.
5.10^6 BT474 cells were implanted orthotopically in the mammary fat pad of NOD.Cg-Prkdc scid/J mice, in the presence of estradiol supplement. After 4 weeks, mice were injected with EB1 3 mg/kg (N=8), 5 mg/kg (N=6) or vehicle (N=8, 10% DMSO in PBS) twice a day for 5 days a week (2×D), during 2 weeks then once per day (1×D) during 3 days. Mice weight and tumor volume were measured 3 and 2 times a week respectively.

For series [9], the system named is BT474. Briefly: MTT cell proliferation, BT474. The format is cell-based, human. As for the experimental part:
as §3, §4
A solution of ZU in cis conformation was mixed to a solution of ZU in trans conformation (1:1) to obtain ZU in a 50/50 cis/trans conformation and their respective effects on ErbB2 activation and ErbB2-dependent cell proliferation were analyzed as previously by dot blot analysis using an anti-phosphotyrosine antibody (clone 4G10) and by MTT assays in the ErbB2-overexpressing breast cancer cell line SKBR3, BT474, or HBMEC as a control.

In series [10] the target is T1, V777L ErbB2 (Homo sapiens, UniProt P04626, V777L).
T1 construct: expressed in transfected cells; host or cells: HBMEC
Briefly: Western blot pY1248, V777L ErbB2 in transfected HBMECs. Format: cell-based. As to conditions: 0, 5, 10 or 20 μM, 48 h. As for the experimental part:
HBMECs cells were transfected with plasmids encoding WT, V777L or V842I and treated with 0, 5, 10 or 20 μM ZU or EB1 for 48 h. ErbB2 activation was then analyzed by western blot analysis using a phospho-ErbB2-specific antibody (pY1248) and a total ErbB2 antibody. Histograms show optical density quantification.

As for `O=C1c2ccccc2[Se](=O)N1c1ccccc1` (centres unmarked) [EB1, Ebselen oxide], the Emax in [1] (SK-BR-3, 0.625-80 μM, read-out: ErbB2 activation 24 h Max inhibition, %) was 66.9%. Further, in series [1], the “maximum inhibition of ErbB2 phosphorylation” value amounted to 70%. For the same molecule, the EC50 was determined as 23.4 µM in [1] (read-out: ErbB2 activation 24 h EC50) and 5.5 µM in series [9] (Homo sapiens, BT-474, 72 h, day 3, read-out: Cell proliferation at d 3 BT474 EC50). Moreover, the IC50 in [1] (read-out: IC50 ErbB2 phosphorylation) was determined as 20 µM; in [9] (Homo sapiens, BT-474) it was 5.5 µM. In series [2], the “ligand-dependent ErbB2 activation induced by EGF or HRG stimulation (in words)” value is listed as “absence of inhibition”. The “decrease of the proliferation of V777L transfected HBMEC” value stood at 70% in series [3] (5 μM) and 85% in [3] (10 μM). Moreover, the results for the “decrease of the proliferation of V842I transfected HBMEC” value in series [4] (5 μM) and in [4] (10 μM) were 55% and 90%, respectively. In addition, the “decrease of the proliferation of WT transfected HBMEC” value in [5] (5 μM) amounted to 60%; in series [5] (10 μM) it was 95%. Further, the “effect on MDA-MB-231 proliferation (in words)” value in series [6] is “without any effect”. For the same molecule, in series [7], the “effect on MCF7 proliferation (in words)” value is “without any effect”. Besides, the “tumor growth in vivo (in words)” value in series [8] (3 mg/kg twice a day 5 days a week 2 weeks) was “able to decrease the tumor growth”; in [8] (5 mg/kg twice a day 5 days a week 2 weeks, tumor volume and tumor weight), “more significant”. For the same molecule, the “tolerability in mice, body weight (in words)” value in series [8] (3 or 5 mg/kg) is “well tolerated”. In addition, the “Cell proliferation at d 3 BT474 Max inhibition, %” value in series [9] (day 3) is 100%. Also, the “ErbB2 V777L activation (in words)” value in series [10] is listed as “potently decrease”.
